The target in one experiment is FGFR2 (Homo sapiens, UniProt P21802). Briefly: Kinase inhibition panel. The following applies: 10 μM ATP. It is filed as biochemical.
The target in another experiment is TBK1 (Homo sapiens, UniProt Q9UHD2). Briefly: Kinase inhibition panel. It is filed as biochemical. The following applies: 10 μM ATP.
The next experiment addresses PKCnu/PRK D3 (Homo sapiens, UniProt O94806). Briefly: Kinase inhibition panel. It is filed as biochemical. The following applies: 10 μM ATP.
The target in a further experiment is FGR (Homo sapiens, UniProt P09769). In words: Kinase inhibition panel. It is filed as biochemical. The following applies: 10 μM ATP.
Sequence of FGR (P09769 whole entry, species assumed): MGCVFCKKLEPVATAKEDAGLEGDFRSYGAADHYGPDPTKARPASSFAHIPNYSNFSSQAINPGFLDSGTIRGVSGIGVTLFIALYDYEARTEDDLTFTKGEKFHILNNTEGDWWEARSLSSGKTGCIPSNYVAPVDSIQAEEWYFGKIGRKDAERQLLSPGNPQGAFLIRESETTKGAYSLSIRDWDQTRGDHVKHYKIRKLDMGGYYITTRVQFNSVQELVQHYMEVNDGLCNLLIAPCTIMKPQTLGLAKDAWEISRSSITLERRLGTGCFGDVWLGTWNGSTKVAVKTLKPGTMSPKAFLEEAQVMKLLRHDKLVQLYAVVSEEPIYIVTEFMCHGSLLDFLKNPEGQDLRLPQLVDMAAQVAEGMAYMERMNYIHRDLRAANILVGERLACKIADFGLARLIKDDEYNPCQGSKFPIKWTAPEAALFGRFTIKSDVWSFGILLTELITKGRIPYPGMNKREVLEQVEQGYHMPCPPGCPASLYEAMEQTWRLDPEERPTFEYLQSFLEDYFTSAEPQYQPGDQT
The next experiment deals with SNU-398. In words: Cytotoxicity assay, viable cell count. It is filed as cell-based. The following applies: Homo sapiens; SNU-398, Liver; 96 h continuous treatment, trypan blue. The method, then: (§1) Cells (1×10^5) were plated into 6-well dishes and 24 h later 8-cyclopentyl-2-((4-(4-methylpiperazin-1-yl)phenyl)amino)-7-oxo-7,8-dihydropyrido[2,3-d]pyrimidine-6-carbonitrile (12) was added at five different concentrations over a 2 log dilution (1-100 μM). The total number of viable cells was determined after 96 h of continuous treatment by staining with trypan blue and counting the number of non-staining cells (viable) remaining in each well using a hemacytometer. The percentage of viable cells remaining was calculated as follows: # viable cells (compound treated)/# viable cells (DMSO treated)*100.

The next experiment deals with Z138C. In words: Cytotoxicity assay, viable cell count. It is filed as cell-based. The following applies: MCL, 96 h continuous treatment, trypan blue. The method, then: as §1
Another experiment concerns HELA. Briefly: Cytotoxicity assay, viable cell count. To be noted: Homo sapiens, Cervical, 96 h continuous treatment, trypan blue. It is filed as cell-based. The method, then:
as §1

The subject of a further experiment is SK-BR-3. Briefly: Cytotoxicity assay, viable cell count. It is filed as cell-based. The following applies: Homo sapiens; SK-BR-3, ErbB2 + Breast; 96 h continuous treatment, trypan blue. As to the method: as §1
The test system of a further experiment is K562. In words: Cytotoxicity assay, viable cell count. To be noted: Homo sapiens; K562, CML; 96 h continuous treatment, trypan blue. It is filed as cell-based. As to the method:
as §1

The subject of another experiment is SNU-449. Briefly: Cytotoxicity assay, viable cell count. The format is cell-based. To be noted: Homo sapiens; SNU-449, Liver; 96 h continuous treatment, trypan blue. The method, then: as §1
The next experiment deals with SNU-5. Briefly: Cytotoxicity assay, viable cell count. It is filed as cell-based. The following applies: Homo sapiens; SNU-5, Gastric; 96 h continuous treatment, trypan blue. As to the method: as §1
A further experiment has as its system DLD-1. In words: Cytotoxicity assay, viable cell count. It is filed as cell-based. The following applies: Homo sapiens; DLD-1, COLO-RECTAL; 96 h continuous treatment, trypan blue. The method, then:
as §1

A further experiment relates to BT20. In words: Cytotoxicity assay, viable cell count. It is filed as cell-based. To be noted: Homo sapiens, BT-20; BT20, Breast; 96 h continuous treatment, trypan blue. The method, then: as §1
The test system of a further experiment is N417. In words: Cytotoxicity assay, viable cell count. It is filed as cell-based. To be noted: N417, SCLC; 96 h continuous treatment, trypan blue. The method, then:
as §1

The test system of another experiment is BT474. In words: Cytotoxicity assay, viable cell count. To be noted: Homo sapiens, BT-474; BT474, ErbB2 + Breast; 96 h continuous treatment, trypan blue. The format is cell-based. As to the method: as §1
Another experiment deals with MDA-MB-468. Briefly: Cytotoxicity assay, viable cell count. The format is cell-based. To be noted: Homo sapiens, MDA-MB-468, 96 h. As to the method: as §1
The next experiment deals with DU145. In words: Cytotoxicity assay, viable cell count. It is filed as cell-based. The following applies: Homo sapiens, DU-145; DU145, PROSTATE; 96 h continuous treatment, trypan blue. As to the method:
as §1

For the next experiment, the system named is RAJI. In words: Cytotoxicity assay, viable cell count. It is filed as cell-based. The following applies: Homo sapiens, B-Cell Lymphoma, 96 h continuous treatment, trypan blue. The method, then:
as §1

Sequence of PKCnu/PRK D3 (O94806 whole entry): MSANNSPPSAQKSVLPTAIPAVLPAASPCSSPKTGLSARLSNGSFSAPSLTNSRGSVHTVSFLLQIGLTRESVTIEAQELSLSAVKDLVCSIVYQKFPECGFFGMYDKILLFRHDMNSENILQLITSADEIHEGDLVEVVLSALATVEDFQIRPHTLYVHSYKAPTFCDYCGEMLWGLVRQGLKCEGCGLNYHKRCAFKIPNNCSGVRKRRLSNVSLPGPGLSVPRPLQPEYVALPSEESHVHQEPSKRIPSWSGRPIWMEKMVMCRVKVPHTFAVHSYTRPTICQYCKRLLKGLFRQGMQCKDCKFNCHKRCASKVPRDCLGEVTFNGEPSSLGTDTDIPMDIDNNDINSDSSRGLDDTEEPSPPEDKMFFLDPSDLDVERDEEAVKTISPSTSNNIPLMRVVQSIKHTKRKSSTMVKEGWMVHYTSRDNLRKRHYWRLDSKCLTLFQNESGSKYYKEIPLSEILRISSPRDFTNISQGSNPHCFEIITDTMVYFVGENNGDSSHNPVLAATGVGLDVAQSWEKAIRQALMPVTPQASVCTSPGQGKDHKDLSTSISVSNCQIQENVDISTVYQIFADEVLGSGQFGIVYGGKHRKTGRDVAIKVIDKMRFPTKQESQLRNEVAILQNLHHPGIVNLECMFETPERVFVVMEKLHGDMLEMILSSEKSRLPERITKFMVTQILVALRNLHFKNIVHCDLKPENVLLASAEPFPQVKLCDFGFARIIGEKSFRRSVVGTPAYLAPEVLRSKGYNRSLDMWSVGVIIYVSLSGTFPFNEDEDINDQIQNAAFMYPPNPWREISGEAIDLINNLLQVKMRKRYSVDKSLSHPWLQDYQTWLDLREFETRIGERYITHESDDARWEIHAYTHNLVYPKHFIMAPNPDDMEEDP
Sequence of TBK1 (Q9UHD2 whole entry, species assumed): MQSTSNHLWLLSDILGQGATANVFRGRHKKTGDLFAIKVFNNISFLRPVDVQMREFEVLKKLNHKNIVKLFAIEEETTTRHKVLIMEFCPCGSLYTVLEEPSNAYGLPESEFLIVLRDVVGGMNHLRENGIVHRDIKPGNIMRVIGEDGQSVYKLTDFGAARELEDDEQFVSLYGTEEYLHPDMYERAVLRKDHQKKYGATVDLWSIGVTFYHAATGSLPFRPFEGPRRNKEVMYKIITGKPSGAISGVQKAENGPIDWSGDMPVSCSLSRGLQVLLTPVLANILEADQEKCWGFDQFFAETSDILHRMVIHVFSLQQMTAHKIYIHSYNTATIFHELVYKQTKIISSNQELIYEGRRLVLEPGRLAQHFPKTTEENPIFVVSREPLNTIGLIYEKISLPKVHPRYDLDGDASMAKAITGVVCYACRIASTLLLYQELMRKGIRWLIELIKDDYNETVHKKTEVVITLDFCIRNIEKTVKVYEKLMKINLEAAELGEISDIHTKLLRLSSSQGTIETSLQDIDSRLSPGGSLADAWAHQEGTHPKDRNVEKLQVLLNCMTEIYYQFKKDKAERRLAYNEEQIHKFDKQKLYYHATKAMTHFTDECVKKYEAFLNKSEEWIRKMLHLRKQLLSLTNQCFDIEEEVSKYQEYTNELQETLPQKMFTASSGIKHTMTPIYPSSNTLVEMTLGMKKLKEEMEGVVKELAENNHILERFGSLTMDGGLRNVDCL
Sequence of FGFR2 (P21802 22-821, species assumed): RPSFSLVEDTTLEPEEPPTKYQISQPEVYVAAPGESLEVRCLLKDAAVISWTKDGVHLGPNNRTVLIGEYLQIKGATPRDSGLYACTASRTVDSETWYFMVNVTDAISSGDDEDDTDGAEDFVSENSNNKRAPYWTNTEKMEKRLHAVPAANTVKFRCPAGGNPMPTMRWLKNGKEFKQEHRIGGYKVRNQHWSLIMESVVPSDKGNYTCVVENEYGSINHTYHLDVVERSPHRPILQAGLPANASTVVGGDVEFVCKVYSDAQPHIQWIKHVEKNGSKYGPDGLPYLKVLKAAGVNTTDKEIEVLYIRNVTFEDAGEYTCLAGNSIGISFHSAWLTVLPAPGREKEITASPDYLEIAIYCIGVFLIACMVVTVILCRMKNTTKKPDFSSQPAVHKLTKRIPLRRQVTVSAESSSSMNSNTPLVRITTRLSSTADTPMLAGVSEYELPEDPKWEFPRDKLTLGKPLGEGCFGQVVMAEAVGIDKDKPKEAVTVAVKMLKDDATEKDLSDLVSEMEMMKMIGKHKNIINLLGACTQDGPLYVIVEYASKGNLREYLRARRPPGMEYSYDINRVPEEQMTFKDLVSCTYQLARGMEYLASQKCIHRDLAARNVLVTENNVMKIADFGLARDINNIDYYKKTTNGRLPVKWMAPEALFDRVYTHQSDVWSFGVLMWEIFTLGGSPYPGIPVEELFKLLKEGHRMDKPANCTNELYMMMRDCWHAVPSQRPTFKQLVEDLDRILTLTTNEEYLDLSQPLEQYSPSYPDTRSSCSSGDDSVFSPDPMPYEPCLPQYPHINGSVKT

As to `CN1CCN(c2ccc(Nc3ncc4cc(C#N)c(=O)n(C5CCCC5)c4n3)cc2)CC1` [Compound 12, 8-cyclopentyl-2-((4-(4-methylpiperazin-1-yl)phenyl)amino)-7-oxo-7,8-dihydropyrido[2,3-d]pyrimidine-6-carbonitrile], the half-maximal inhibitory concentration (IC50) (as a rule, the concentration that gives 50% inhibition) amounted to 54.8 nM on FGFR2, 71.8 nM on TBK1, 55.8 nM on PKCnu/PRK D3 and 112 nM against FGR. Also, the GI50 (in general, the concentration at which growth is held to half of that of the control) with SNU-398 is 500 nM; in the experiment on Z138C, 25 nM; in the experiment with HELA, 750 nM; in the experiment on SK-BR-3 it was 600 nM; with K562, 500 nM; with SNU-449 it was 750 nM. Further, the GI50 in the experiment on SNU-5 is 200 nM; in the experiment with DLD-1, 100 nM; in the experiment on BT20, 100 nM; in the experiment on N417, 250 nM; in the experiment with BT474, 250 nM; in the experiment on MDA-MB-468, 1500 nM. In addition, the GI50 in the experiment with DU145 was determined as 750 nM; in the experiment with RAJI, 250 nM.

The record behind these values is patent publication US8987267B2, “2-substituted-8-alkyl-7-OXO-7,8-dihydropyrido[2,3-D]pyrimidine-6-carbonitriles and uses thereof in treating proliferative disorders” (Temple University—of the Commonwealth System of Higher …, priority 2010, dated 2015).
